# Measurements published in patent US20110098177A1, “METHODS AND COMPOSITIONS OF PLANT MICRONUTRIENTS” (NOVUS INTERNATIONAL INC., priority 2006, published 2011).
# How the values were obtained:
# Assay type in all cases: in vivo
# Florida-47 tomato = test: Foliar nutrient concentration at 6 WAT, greenhouse Fall 2007, tomato; conditions: Example 2; crop not specified (tomato / bell pepper)
# Protocol: The following experiments were performed in a green house during the fall of 2007 at GCREC, Balm, University of Florida. Fifteen products, at 3 different application rates were examined. The plot size was 2-gallon pots. Crop set-up, procedures and variables were as follows.
# Transplants of ‘Florida-47’ tomato and ‘Aristotle’ bell pepper plants in the 4-true leaf stage (about 6 inches tall) were planted in 2-gal pots on Aug. 27, 2007. Pots were filled with a commercially available planting medium. This medium was selected based on the mineral composition of the products to be applied without providing significant nutritional inputs to the crops. Irrigation was provided with drip lines delivering between 0.50 and 0.33 gal/day/pot for tomato and bell pepper, respectively, and the crops were irrigated three times per day. No foliar pesticides were necessary. […]
# Medium nutrient concentration was determined 1 week before treatment. […] The foliar tissue analysis was performed at 6 WAT and the concentration of N, P, K, Mg, Ca, S, B, Zn, Mn, Fe, and Cu was determined by a commercial laboratory. Plant toxicity was determined at 4 WAT by using a 0-10 visual scale, where 0=no visible damage and 10=total plant death. […]
# Data were analyzed using a general linear model, and means were separated using orthogonal contrasts at the 5% significance level.
# [1] = tested on: soybean plants (Asgrow 1102); test: Visual greenness ratings (1-5 scale) of soybean plants, open-field (Examples 11-12); conditions: for Greenness of soybean plants compared to control, statement: Foxhome site, 29 July rating
# Protocol: The following experiments were performed on soybean plants growing in open-field plots during the summer and fall of 2008 at two production fields in West Central Minnesota. […] Trial design was a randomized complete block with 4 replications. Each plot measured 10' by 30' and consisted of five 22'' rows. Although all five rows of each plot were treated, only the center three rows (25' in length) of each plot were machine harvested. The two fields selected for these studies had historical Iron Deficiency Chlorosis (IDC) issues. The two field sites were planted by farmers with elite Roundup Ready commodity type soybean varieties with IDC tolerance (Asgrow 1102, Monsanto Corp.). […] BIOX-M was applied at a rate of 1.12 kg Mn/ha. […] All V4 treatments were applied in 10 gallons per acre of water with a backpack sprayer with a hand boom designed to “band” apply product directly to the plant row. Three nozzles with ConeJet TXVS-2 tips were oriented on either side and over the top of each row. This maximized the applied product to the plant tissue itself and minimized application of product to the soil surface. […] The V6 treatments (where applicable) were applied in 20 gallons per acre of water to increase the suspension of the BIOX products.
# [2] = tested on: soybean plants (Asgrow 1102); test: Soybean seed protein and oil content (Examples 11-12); conditions: in %
# Protocol: (§1) The following experiments were performed on soybean plants growing in open-field plots during the summer and fall of 2008 at two production fields in West Central Minnesota. […] Trial design was a randomized complete block with 4 replications. Each plot measured 10' by 30' and consisted of five 22'' rows. Although all five rows of each plot were treated, only the center three rows (25' in length) of each plot were machine harvested. The two fields selected for these studies had historical Iron Deficiency Chlorosis (IDC) issues. The two field sites were planted by farmers with elite Roundup Ready commodity type soybean varieties with IDC tolerance (Asgrow 1102, Monsanto Corp.). […] BIOX-M was applied at a rate of 1.12 kg Mn/ha. […] All V4 treatments were applied in 10 gallons per acre of water with a backpack sprayer with a hand boom designed to “band” apply product directly to the plant row. Three nozzles with ConeJet TXVS-2 tips were oriented on either side and over the top of each row. This maximized the applied product to the plant tissue itself and minimized application of product to the soil surface. […] The V6 treatments (where applicable) were applied in 20 gallons per acre of water to increase the suspension of the BIOX products. Soybean seed was harvested after soybean maturity was reached (3 October at […], and 17 Oct. 2008 at Foxhome) and seed yields for each experimental treatment group were determined. In addition, seed samples from each treatment were dried to 13% moisture content, then analyzed for protein and oil content.
# [3] = tested on: soybean plants (Asgrow 1102); test: Soybean seed yield (Examples 11-12)
# Protocol: as §1
molecule,measurement,setting,value
"CSCCC(O)C(=O)[O-].CSCCC(O)C(=O)[O-].[Cu+2] (stereo not shown) [BIOX-Cu, Cu-HMTBA]",Foliar Cu relative to the non-Cu control,Florida-47 tomato,about 4 times
"CSCCC(O)C(=O)[O-].CSCCC(O)C(=O)[O-].[Mn+2] (stereo not shown) [BIOX-M, Mn-HMTBA]",Mean visual greenness scores (1-5),"[1]; 7.0 kg/ha, V4, Jul. 15, 2008 Rating, Foxhome",2.5
same,Mean visual greenness scores (1-5),"[1]; 7.0 kg/ha, V4, Jul. 15, 2008 Rating, Renville",2.9
same,Mean visual greenness scores (1-5),"[1]; 7.0 kg/ha, V4, Jul. 29, 2008 Rating, Foxhome",1.0 C
same,Mean visual greenness scores (1-5),"[1]; 7.0 kg/ha, V4, Jul. 29, 2008 Rating, Renville",1.3
same,"Greenness of soybean plants compared to control, statement",[1]; BIOX-M 1.12 kg Mn/ha,small but significant increase in greenness
same,Oil content (13% moisture),"[2]; 7.0 kg/ha, V4, Foxhome",18.28
same,Protein content (13% moisture),"[2]; 7.0 kg/ha, V4, Foxhome",32.90
same,Oil content (13% moisture),"[2]; 7.0 kg/ha, V4, Renville",19.97
same,Protein content (13% moisture),"[2]; 7.0 kg/ha, V4, Renville",31.97
same,Yield,"[3]; 7.0 kg/ha, V4, Foxhome",43.63 Bu/A
same,Yield,"[3]; 7.0 kg/ha, V4, Renville",24.15 Bu/A
"CSCCC(O)C(=O)[O-].CSCCC(O)C(=O)[O-].[Zn+2] (stereo not shown) [BIOX-Z, Zn-HMTBA]",Foliar Zn concentration relative to the non-Zn control,Florida-47 tomato,approximately 3 times
Fe-HMTBA [BIOX-Fe],Mean visual greenness scores (1-5),"[1]; 0.558 kg/ha, V4, V6, Jul. 15, 2008 Rating, Foxhome",2.4
same,Mean visual greenness scores (1-5),"[1]; 0.558 kg/ha, V4, V6, Jul. 15, 2008 Rating, Renville",2.4
same,Mean visual greenness scores (1-5),"[1]; 0.558 kg/ha, V4, V6, Jul. 29, 2008 Rating, Foxhome",1.0 C
same,Mean visual greenness scores (1-5),"[1]; 0.558 kg/ha, V4, V6, Jul. 29, 2008 Rating, Renville",1.1
same,Mean visual greenness scores (1-5),"[1]; 0.558 kg/ha, V4, Jul. 15, 2008 Rating, Foxhome",2.8
same,Mean visual greenness scores (1-5),"[1]; 0.558 kg/ha, V4, Jul. 15, 2008 Rating, Renville",2.6
same,Mean visual greenness scores (1-5),"[1]; 0.558 kg/ha, V4, Jul. 29, 2008 Rating, Foxhome","1.4 B, C"
same,Mean visual greenness scores (1-5),"[1]; 0.558 kg/ha, V4, Jul. 29, 2008 Rating, Renville",1.1
same,Mean visual greenness scores (1-5),"[1]; 1.12 kg/ha, V4, V6, Jul. 15, 2008 Rating, Foxhome",2.6
same,Mean visual greenness scores (1-5),"[1]; 1.12 kg/ha, V4, V6, Jul. 15, 2008 Rating, Renville",2.6
same,Mean visual greenness scores (1-5),"[1]; 1.12 kg/ha, V4, V6, Jul. 29, 2008 Rating, Foxhome","1.5 A, B, C"
same,Mean visual greenness scores (1-5),"[1]; 1.12 kg/ha, V4, V6, Jul. 29, 2008 Rating, Renville",1.4
same,Mean visual greenness scores (1-5),"[1]; 1.12 kg/ha, V4, Jul. 15, 2008 Rating, Foxhome",2.5
same,Mean visual greenness scores (1-5),"[1]; 1.12 kg/ha, V4, Jul. 15, 2008 Rating, Renville",2.1
same,Mean visual greenness scores (1-5),"[1]; 1.12 kg/ha, V4, Jul. 29, 2008 Rating, Foxhome",1.0 C
same,Mean visual greenness scores (1-5),"[1]; 1.12 kg/ha, V4, Jul. 29, 2008 Rating, Renville",1.0
same,"Greenness of soybean plants compared to control, statement",[1]; higher rate (269 g Fe/ha) at V4 only,significantly increased the greenness in treated plants
same,"Greenness of soybean plants compared to control, statement",[1]; higher rate (269 g Fe/ha) at both V4 and V6,no change in greenness compared to control
same,Toxic effects on soybean plants (in words),[1]; iron concentrations 0.094% - 0.376% by weight,without toxic effects
same,"Greenness of soybean plants compared to control, statement",[1]; lower rate (134 g Fe/ha) at V4,had no effect on greenness
same,"Greenness of soybean plants compared to control, statement",[1]; lower rate (134 g Fe/ha) at both V4 and V6,significantly increased the greenness of the soybean plants
same,Oil content (13% moisture),"[2]; 0.558 kg/ha, V4, V6, Foxhome",18.42
same,Protein content (13% moisture),"[2]; 0.558 kg/ha, V4, V6, Foxhome",32.73
same,Oil content (13% moisture),"[2]; 0.558 kg/ha, V4, V6, Renville",20.16
same,Protein content (13% moisture),"[2]; 0.558 kg/ha, V4, V6, Renville",32.04
same,Oil content (13% moisture),"[2]; 0.558 kg/ha, V4, Foxhome",18.46
same,Protein content (13% moisture),"[2]; 0.558 kg/ha, V4, Foxhome",32.60
same,Oil content (13% moisture),"[2]; 0.558 kg/ha, V4, Renville",20.12
same,Protein content (13% moisture),"[2]; 0.558 kg/ha, V4, Renville",31.93
same,Oil content (13% moisture),"[2]; 1.12 kg/ha, V4, V6, Foxhome",18.40
same,Protein content (13% moisture),"[2]; 1.12 kg/ha, V4, V6, Foxhome",32.68
same,Oil content (13% moisture),"[2]; 1.12 kg/ha, V4, V6, Renville",20.10
same,Protein content (13% moisture),"[2]; 1.12 kg/ha, V4, V6, Renville",32.36
same,Oil content (13% moisture),"[2]; 1.12 kg/ha, V4, Foxhome",18.48
same,Protein content (13% moisture),"[2]; 1.12 kg/ha, V4, Foxhome",32.47
same,Oil content (13% moisture),"[2]; 1.12 kg/ha, V4, Renville",20.28
same,Protein content (13% moisture),"[2]; 1.12 kg/ha, V4, Renville",32.23
same,Yield,"[3]; 0.558 kg/ha, V4, V6, Foxhome",46.01 Bu/A
same,Yield,"[3]; 0.558 kg/ha, V4, V6, Renville",27.65 Bu/A
same,Yield,"[3]; 0.558 kg/ha, V4, Foxhome",43.17 Bu/A
same,Yield,"[3]; 0.558 kg/ha, V4, Renville",27.92 Bu/A
same,Yield,"[3]; 1.12 kg/ha, V4, V6, Foxhome",43.43 Bu/A
same,Yield,"[3]; 1.12 kg/ha, V4, V6, Renville",26.62 Bu/A
same,Yield,"[3]; 1.12 kg/ha, V4, Foxhome",44.23 Bu/A
same,Yield,"[3]; 1.12 kg/ha, V4, Renville",27.43 Bu/A
